Patent US20170000784A1, “Autophagy Inhibitors” (priority 2013, published 2017)
Converted amounts (≈) assume the structure as drawn.

Experiments:
L6 cells = experiment: In vitro cytotoxicity (LD50), Alamar Blue; assay type: cell-based; conditions: Rattus norvegicus, L6, read-out: L6 IC50
Experimental: L6 cells were seeded at 4×10^4 cells per well in a 96-well microtiter plate with each well containing 100 μL of RPMI 1640 medium, supplemented with 1% L-glutamine (200 mM), and 10% fetal bovine serum. Serial drug dilutions of Example 7 and Example 27 with seven 3-fold dilution steps, covering a range from 90 to 0.12 μg/mL, were prepared. After 72 h of incubation, the plates were inspected under an inverted microscope to ensure growth of the controls and sterile conditions. Alamar Blue (10 μL, 12.5 mg of resazurin dissolved in 100 mL of double-distilled water) was then added to each well, and the plates were incubated for another 2 hours. Plates were read with a microplate fluorometer using an excitation wavelength of 536 nm and an emission wavelength of 588 nm. Data were analyzed using microplate reader software. Podophyllotoxin was used as a standard (L6 IC50=0.04 μg/mL).
Next, the inventors wanted to determine if there is a therapeutic window for Example 7 and Example 27 in the treatment of P. falciparum. A therapeutic window for P. falciparum treatment is defined as a 10-fold differential between the in vitro cytotoxicity (LD50) within a mammalian cell line and the antimalarial IC50 (LD50/IC50) as defined by the MMV. Using the rat skeletal muscle L6 mammalian cell line, dose-response curves for Example 7 and Example 27 were performed and the LD50 determined.

[1] = tested on: PLX-4032 resistant melanoma cell lines UACC1093 and UACC647; experiment: Combination interaction tumor cell viability (ATP luminescence, 72 hours); assay type: cell-based
Experimental: (§1) Tumor cell lines (H292, HCT116, A375, HCC1569, A498, N87, UACC1093, and UACC647) were cultured in RPMI 1640 supplemented with 5% fetal bovine serum and housed in a 5% CO2 Incubator at 37° C.
(§2) For combination interaction experiments, cells were plated on a 96 well microplate and allowed 24 hours to adhere. Drugs were administered to the drug plate by the following: compound stock solutions (20 mM) or combination agent stock solutions (20 mM) were added to a drug plate where a 1:10 dilution was performed. Following the dilutions, 2 μl of each VT-062 and standard agent was transferred to the corresponding wells in the cell-containing 96-well plate with 196 μl of growth media. The compound and combination agent was concurrently tested over a range of 0.1 pM-100 μM for 72 hours. Following 72 hours of continuous exposure cell viability was determined by measuring the ATP activity using a commercially available cell viability assay kit. Luminescence intensity was used to relative drug activity compared to control wells and used to graphically determine the IC50 of combination.

[2] = tested on: A375 Human melanoma tumor cells; experiment: Human tumor xenograft study; assay type: in vivo; conditions: A375 xenograft in female mice; orally, daily for 21 days; after 25 days
Experimental: Female mice were inoculated subcutaneously in the right flank with 0.1 ml of a 50% RPMI/50% Matrigel™ (BD Biosciences, Bedford, Mass.) mixture containing a suspension of A375 Human melanoma tumor cells (approximately 5×10^6 cells/mouse).
When tumor reached approximately 130 mg, mice were randomized into treatment groups. Body weights were recorded when the mice were randomized and were taken twice per week (on Study Days 3 and 7 for each cycle) thereafter in conjunction with tumor measurements. Treatment began on the day of randomization. Example 10 was delivered orally in a vehicle consisting of 5% DMA, 10% propylene glycol, 20% PEG 400, and 65% sterile water. Example 10 was administered daily for 21 days.

[3] = tested on: Tumor cell lines (H292, HCT116, A375, HCC1569, A498, N87, UACC1093, and UACC647); experiment: Single agent tumor cell viability (ATP luminescence, 72 hours); assay type: cell-based; conditions: cell lines tested; 72 hours exposure; FIGS. 1A, 1B
Experimental: as §1
as §2, with “single agent IC50 determination,” for “combination interaction experiments,”, “(10” for “(20 mM) or combination agent stock solutions (20”, “test compound” for “each VT-062 and standard agent”, “198” for “196”, “compounds were” for “compound and combination agent was concurrently”, “IC50.” for “IC50 of combination.”

[4] = tested on: UACC-903 melanoma cell line; experiment: Cell viability (IC50) screen, CellTiter Glo, UACC-903; assay type: cell-based; conditions: Homo sapiens; UACC-903 cell viability, CellTiter Glo; read-out: IC50
Experimental: (§3) U2OS cells were seeded at 500 cells per well in 5A McCoy's with 10% FBS in 96-well clear bottom, black-walled tissue culture plates. All melanoma cell lines (A375, UACC-91, UACC-257, UACC-502, UACC-903, UACC-1308, UACC-1940, UACC-2534, and UACC-3291) were seeded at 5,000 cells per well in RPMI 1640 with 10% FBS in 96-well clear bottom, black-walled tissue culture plates. After 24 hour incubation, cells were treated with VATG compounds in triplicate with a 10-point half log dose response from […] for 24 and 48 hours. Medium was removed and 2× CellTiter Glo (Promega, G7571) reagent mixed 1:1 with Opti-MEM (Invitrogen, 31985062) was added at 100 μL per well and incubated at room temperature for 15 minutes while rocking. 75 μL per well was moved to a white-walled 96-well plate and luminescence quantified using the 96 LUM program on an EnVision plate reader (PerkinElmer) and exported for analysis. All triplicate data points were averaged and luminescent readings for each treatment were normalized to vehicle control for change in viability. Dose response curves were input into SigmaPlot for IC50 calculations (Systat Software Inc).

[5] = tested on: UACC-257 melanoma cell line; experiment: Cell viability (IC50) screen, CellTiter Glo, UACC-257; assay type: cell-based; conditions: Homo sapiens; UACC-257 cell viability, CellTiter Glo; read-out: IC50
Experimental: as §3

A375 cells = assay type: cell-based, human; conditions: A375 soft agar
Source text: After three weeks of treatment, cells were fixed and stained in 1% paraformaldehyde in 1×PBS containing 0.005% crystal violet overnight. Cells were destained with multiple washes of 1×PBS to remove background staining. Plates were scanned and images quantified using Nikon NIS Elements software. To quantify, each image was sharpened and an ROI of equal size drawn around each well. Intensity thresholds were set to include all pixels equal to or greater than the intensity of the mean background fluorescence. Objects within the threshold of each ROI were quantified using an automated object count function and exported for analysis. Object number was quantified to denote total colony formation. […] Additivity was established when the expected viability determined by the Bliss independence model was equal to the actual viability. This model was chosen since the effects of both compounds are mutually non-exclusive and follow first order Michaelis-Menten kinetics.
To determine if the effects of each combination were more than, less than, or equal to additive, predictions for additivity were made using the Bliss Independence (Table 7), as disclosed in Yan H, Zhang B, Li S, Zhao Q. A formal model for analyzing drug combination effects and its application in TNF-alpha-induced NFkappaB pathway. BMC Syst. […] Drug combination studies and their synergy quantification using the Chou-Talalay method.

[6] = tested on: UACC-3291 melanoma cell line; experiment: Cell viability (IC50) screen, CellTiter Glo, UACC-3291; assay type: cell-based; conditions: Homo sapiens; UACC-3291 cell viability, CellTiter Glo; read-out: IC50
Experimental: as §3

[7] = tested on: UACC-91 melanoma cell line; experiment: Cell viability (IC50) screen, CellTiter Glo, UACC-91; assay type: cell-based; conditions: Homo sapiens; UACC-91 cell viability, CellTiter Glo; read-out: IC50
Experimental: as §3

[8] = tested on: UACC-1308 melanoma cell line; experiment: Cell viability (IC50) screen, CellTiter Glo, UACC-1308; assay type: cell-based; conditions: Homo sapiens; UACC-1308 cell viability, CellTiter Glo; read-out: IC50
Experimental: as §3

A375 melanoma cell line = experiment: Cell viability (IC50) screen, CellTiter Glo, A375; assay type: cell-based; conditions: Homo sapiens, A-375; A375 cell viability, CellTiter Glo, 48 hours; read-out: IC50
Experimental: as §3

[9] = tested on: UACC-502 melanoma cell line; experiment: Cell viability (IC50) screen, CellTiter Glo, UACC-502; assay type: cell-based; conditions: Homo sapiens; UACC-502 cell viability, CellTiter Glo; read-out: IC50
Experimental: as §3

[10] = tested on: UACC-2534 melanoma cell line; experiment: Cell viability (IC50) screen, CellTiter Glo, UACC-2534; assay type: cell-based; conditions: Homo sapiens; UACC-2534 cell viability, CellTiter Glo; read-out: IC50
Experimental: as §3

[11] = tested on: UACC-1940 melanoma cell line; experiment: Cell viability (IC50) screen, CellTiter Glo, UACC-1940; assay type: cell-based; conditions: Homo sapiens; UACC-1940 cell viability, CellTiter Glo; read-out: IC50
Experimental: as §3

[12] = tested on: phospho-ERK1/2 and LC3-II in A375 cells; experiment: Western blot of A375 cells treated with PLX-4032 with and without autophagy inhibitors; assay type: cell-based, human
Experimental: For Western blotting, U2OS cells were seeded in 10 cm plates in 5A McCoy's with 10% FBS at 1×10^6 cells per plate. All melanoma lines were seeded in 10 cm plates in RPMI 1640 with 10% FBS at 1×10^6 cells per plate. After 24 hours, cells were treated with CQ, QN, Example 27, or Example 7 in a dose response of 0.3 μM, 1 μM, 3 μM, 10 μM, and 30 μM for three hours. A375 were treated with PLX-4032 (Selleck Chemicals, S1267) at 10 nM, 100 nM, and 1 μM for three hours with and without CQ, QN, Example 7, and Example 27 at 3 μM and 30 μM. After treatment, cells were lysed [10 mM KPO4, 1 mM EDTA, 10 mM MgCl2, 5 mM EGTA, 50 mM bis-glycerophosphate, 0.5% NP40, 0.1% Brij35, 0.1% sodium deoxycholate, 1 mM NaVO4, 5 mM NaF, 2 mM DTT, and complete protease inhibitors (Sigma, P8340-5 mL)] and 50 μg of protein was resolved by SDS-PAGE. Proteins were transferred to PVDF membranes and probed with primary antibodies [LC3 (Sigma, L7543-200UL), anti-α-tubulin (Sigma, T6199), cathepsin B (Santa Cruz, sc-13985)] for 16 hours at 4° C. followed by a secondary antibody [HRP-linked rabbit or mouse IgG (GE Healthcare, NA934 or NA931) or Odyssey IRDye 680CW Goat anti-rabbit IgG (LI-COR, 926-32221) or IRDye 800CW Goat anti-mouse IgG (LI-COR, 926-32210)] for 1 hour at room temperature. Proteins were detected with enhanced chemiluminescence or using the Odyssey machine and quantified (FIGS. 12, 15, 16, 7 and 11).
Since the melanoma cell lines are capable of undergoing autophagy and sensitive to autophagy inhibition, the inventors questioned whether autophagy inhibitors could improve the efficacy of, or sensitize melanoma cells against cytotoxic and chemotherapeutic drugs for advanced metastatic melanoma. In one example, PLX-4032 drug “vemurafenib” (marketed as ZELBORAF®) is a B-Raf enzyme inhibitor developed by Plexxikon and Genentech for the treatment of late-stage melanoma. The name “vemurafenib” comes from V600E mutated BRAF inhibition. PLX-4032, selectively targets the V600E mutant BRAF and it is unknown how this drug may affect autophagic flux. To determine the effects of the drug on autophagic flux, the present inventors performed experiments to determine whether PLX-4032 induces autophagy, as has been observed with other targeted agents. In some embodiments, the accumulation of LC3-II in response to lysosome inhibition was measured by quantitative Western blotting, as described above. A375 cells were treated with PLX-4032 (10 nM, 100 nM, and 1 μM) for three hours in the presence or absence of CQ.

[13] = tested on: metastatic melanoma with BRAF V600E mutation; conditions: metastatic melanoma patients with the mutation; in one study; cited from earlier work

Question: With `COc1cc([C@@H]2c3cc4c(cc3[C@H](O)[C@H]3COC(=O)[C@H]23)OCO4)cc(OC)c1OC` [Podophyllotoxin] as the compound, how does the IC50 (L6 cells) read?
Answer: Its IC50 is 0.04 µg/mL (≈ 0.0965 µM).

Question: Which “increase in tumor growth inhibition in combination than Example 10 alone” value ([1]; in combination with PLX-4032, FIGS. 4A, 4C) does the source give for `COc1ccc2nc3cc(Cl)ccc3c(NCCCCN(C)CC3CC3)c2c1` [Example 10, N^1-(6-Chloro-2-methoxyacridin-9-yl)-N^4-(cyclopropylmethyl)-N^4-methylbutane-1,4-diamine] here?
Answer: The value was 2.6-3.25%.

Question: And the “increase in tumor growth inhibition in combination than Example 10 alone” value ([1]; in combination with Temozolomide, FIGS. 4B, 4D)?
Answer: The value was 7-30%.

Question: And the tumor growth inhibition [2]?
Answer: Its tumor growth inhibition is “greater than 50%”.

Question: What about the “tumor cell growth inhibition” value [3] of the same compound?
Answer: The value was “more than 75%”.

Question: For `CCCS(=O)(=O)Nc1ccc(F)c(C(=O)c2c[nH]c3ncc(-c4ccc(Cl)cc4)cc23)c1F` [PLX-4032, N-[3-[5-(4-chlorophenyl)-1H-pyrrolo[2,3-b]pyridine-3-carbonyl]-2,4-difluorophenyl]propane-1-sulfonamide, reference compound], which IC50 [4] is on record?
Answer: Its IC50 is 69 µM.

Question: What about the IC50 [5] of the same compound?
Answer: Its IC50 is 4 µM.

Question: What about the “Relative Growth Inhibition Compound B” value (A375 cells; single compound at IC10) of the same compound?
Answer: Its value is 0.19.

Question: And the IC10 concentration (A375 cells; treated every other day for three weeks, single agent)?
Answer: Its IC10 concentration is 0.0013 µM.

Question: And the IC50 [6]?
Answer: Its IC50 is 1.5 µM.

Question: What about the IC50 [7] of the same compound?
Answer: Its IC50 is 0.6 µM.

Question: What about the IC50 [8] of the same compound?
Answer: The IC50 was 0.6 µM.

Question: What about the IC50 (A375 melanoma cell line) of the same compound?
Answer: The IC50 was 1 µM.

Question: And the IC50 [9]?
Answer: Its IC50 is 4.2 µM.

Question: What about the IC50 [10] of the same compound?
Answer: Its IC50 is 19.3 µM.

Question: What about the IC50 [11] of the same compound?
Answer: The IC50 was 3.3 µM.

Question: And the “phosphorylation of ERK1/2 (oncogenic BRAF signaling)” value ([12]; 10 nM, 100 nM, 1 μM for three hours)?
Answer: Its value is “reduced phosphorylation”.

Question: And the “autophagy / basal autophagic flux (LC3-II)” value ([12]; three hours, in the presence or absence of lysosome inhibitors)?
Answer: Its value is “not significantly altered”.

Question: What about the response rate [13] of the same compound?
Answer: Its response rate is 70%.
